From patent US7544803B2, “Vanilloid receptor ligands and their use in treatments” (Amgen Inc., priority 2004, dated 2009)

Row | melting point | SMILES
1 | 229.7 °C | O=C(Nc1ccc2cccnc2c1)c1cc2ccc(C(F)(F)F)cc2s1
2 | 296 °C | O=C(Nc1ccc2cccnc2c1)c1cc2ncc(C(F)(F)F)cc2s1 [Example 6, 6-Trifluoromethyl-thieno[3,2-b]pyridine-2-carboxylic acid quinolin-7-ylamide]
3 | 239.5 to 241.5 °C | O=C(Nc1ccc2cccnc2c1)c1ccc2cc(Br)ccc2c1 [Example 32, 6-Bromo-naphthalene-2-carboxylic acid quinolin-7-ylamide]
4 | 156 to 157 °C | O=C(Nc1ccc2cccnc2c1)c1ccc2cc(Br)ccc2n1 [Example 36, 6-Bromo-quinoline-2-carboxylic acid quinolin-7-ylamide]
